Results reported in the supplement of paper PMC4862054.

What was measured:
DU-4475 [1] = settings: 72 h
In short: (§1)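 EC50 was fitted from dose-response curves and censored at the highest concentration tested. To build those curves, breast cancer cell lines (20 µl suspension) were seeded into 384-well plates containing compound at 5 concentrations in 10-fold steps over a compound-specific 10,000-fold range and incubated for 72 h. Readouts were CellTox Green fluorescence (485/520 nm) for cell death and then CellTiter-Glo luminescence for viability, with each plate normalised to 0.1 % DMSO and a positive kill control.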

BT-474 [2] = settings: 72 h
In short: as §1

HDQ-P1 = settings: 72 h
In short: as §1

Hs578T [3] = settings: 72 h
In short: as §1

MFM-223 [4] = settings: 72 h
In short: as §1

CAL-85-1 [5] = settings: 72 h
In short: as §1

HCC1143 [6] = settings: 72 h
In short: as §1

SK-BR-3 [7] = settings: 72 h
In short: as §1

CAL-51 [8] = settings: 72 h
In short: as §1

MDA-MB-436 [9] = settings: 72 h
In short: as §1

CAL-148 [10] = settings: 72 h
In short: as §1

BT-549 = settings: 72 h
In short: as §1

MDA-MB-231 [11] = settings: 72 h
In short: as §1

HCC1599 [12] = settings: 72 h
In short: as §1

MDA-MB-453 [13] = settings: 72 h
In short: as §1

MDA-MB-468 [14] = settings: 72 h
In short: as §1

MDA-MB-453 [15] = test: drug sensitivity score (DSS), CellTox Green (DSS (AUC-based score)); higher = stronger drug effect (viability inhibition or cytotoxicity); extreme values may be limits of the assay; settings: incubation time: 72 h
In short: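 Breast cancer cell lines were seeded in 20 µl suspension into 384-well plates already holding compound and incubated for 72 h. Each compound was tested at 5 concentrations in 10-fold steps across its own 10,000-fold range. Plates were normalised to 0.1 % DMSO and a positive kill control after CellTox Green and then CellTiter-Glo readings. The area under the fitted dose-response curve served as the basis for the drug sensitivity score.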

MFM-223 [16] = settings: 72 h; remark: listed apart in the source
Protocol: (§2)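 Drug sensitivity and resistance testing (DSRT) of breast cancer cell lines in 384-well plates, 5 concentrations in 10-fold dilutions over a compound-specific 10,000-fold range. After 72 h, cytotoxicity was read by CellTox Green fluorescence and viability by CellTiter-Glo luminescence (multiplexed), normalised to DMSO and benzethonium chloride controls. EC50 is the inflection point of the fitted dose-response curve (bottom asymptote free, so it can be relative for partial curves) and is censored at the highest tested concentration. Rows with DSS 0 (no meaningful response) were excluded.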

CAL-85-1 [17] = settings: 72 h; remark: listed apart in the source
Protocol: as §2

CAL-51 [18] = settings: 72 h; remark: listed apart in the source
Protocol: as §2

MDA-MB-436 [19] = settings: 72 h; remark: listed apart in the source
Protocol: as §2

CAL-148 [20] = settings: 72 h; remark: listed apart in the source
Protocol: as §2

MDA-MB-231 [21] = settings: 72 h; remark: listed apart in the source
Protocol: as §2

MDA-MB-468 [22] = settings: 72 h; remark: listed apart in the source
Protocol: as §2

BT-474 [23] = settings: 72 h; remark: listed apart in the source
In short: (§3)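 Plates of 384 wells holding compound in 5 µl medium received breast cancer cell lines in 20 µl suspension and were incubated 72 h. CellTiter-Blue (2.5 µl, 2 h, 37 °C) was used for viability, read at 560/590 nm, and every plate was normalised to vehicle and a positive kill control and assessed by Z'-factor. The EC50 derives from a percent-inhibition dose-response curve fit censored at the highest concentration, leaving out rows whose drug sensitivity score was zero.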

Hs578T [24] = settings: 72 h; remark: listed apart in the source
In short: as §3

MFM-223 [25] = settings: 72 h; remark: listed apart in the source
In short: as §3

CAL-120 = settings: 72 h
In short: as §3

HCC1143 [26] = settings: 72 h; remark: listed apart in the source
In short: as §3

SK-BR-3 [27] = settings: 72 h; remark: listed apart in the source
In short: as §3

MDA-MB-231 [28] = settings: 72 h; remark: listed apart in the source
In short: as §3

HCC1937 = settings: 72 h
In short: as §3

HCC1599 [29] = settings: 72 h; remark: listed apart in the source
In short: as §3

MDA-MB-468 [30] = settings: 72 h; remark: listed apart in the source
In short: as §3

DU-4475 [31] = settings: 72 h; remark: listed apart in the source
In short: as §3

CAL-85-1 [32] = settings: 72 h; remark: listed apart in the source
In short: as §3

CAL-51 [33] = settings: 72 h; remark: listed apart in the source
In short: as §3

CAL-148 [34] = settings: 72 h; remark: listed apart in the source
In short: as §3

MDA-MB-453 [35] = settings: 72 h; remark: listed apart in the source
In short: as §3

Compound | EC50, CellTiter-Glo (DU-4475 [1]) [µM] | EC50, CellTiter-Glo (BT-474 [2]) [µM] | EC50, CellTiter-Glo (HDQ-P1) [nM] | EC50, CellTiter-Glo (Hs578T [3]) [nM] | EC50, CellTiter-Glo (MFM-223 [4]) [µM] | EC50, CellTiter-Glo (CAL-85-1 [5]) [µM] | EC50, CellTiter-Glo (HCC1143 [6]) [µM] | EC50, CellTiter-Glo (SK-BR-3 [7]) [nM] | EC50, CellTiter-Glo (CAL-51 [8]) [nM] | EC50, CellTiter-Glo (MDA-MB-436 [9]) [nM] | EC50, CellTiter-Glo (CAL-148 [10]) [nM] | EC50, CellTiter-Glo (BT-549) [nM] | EC50, CellTiter-Glo (MDA-MB-231 [11]) [µM] | EC50, CellTiter-Glo (HCC1599 [12]) [nM] | EC50, CellTiter-Glo (MDA-MB-453 [13]) [nM] | EC50, CellTiter-Glo (MDA-MB-468 [14]) [µM] | drug sensitivity score (MDA-MB-453 [15]) | EC50, CellTox Green (MFM-223 [16]) [nM] | EC50, CellTox Green (CAL-85-1 [17]) [µM] | EC50, CellTox Green (CAL-51 [18]) [nM] | EC50, CellTox Green (MDA-MB-436 [19]) [µM] | EC50, CellTox Green (CAL-148 [20]) [µM] | EC50, CellTox Green (MDA-MB-231 [21]) [µM] | EC50, CellTox Green (MDA-MB-468 [22]) [nM] | EC50, CellTiter-Blue viability (BT-474 [23]) [µM] | EC50, CellTiter-Blue viability (Hs578T [24]) [µM] | EC50, CellTiter-Blue viability (MFM-223 [25]) [nM] | EC50, CellTiter-Blue viability (CAL-120) [nM] | EC50, CellTiter-Blue viability (HCC1143 [26]) [µM] | EC50, CellTiter-Blue viability (SK-BR-3 [27]) [nM] | EC50, CellTiter-Blue viability (MDA-MB-231 [28]) [nM] | EC50, CellTiter-Blue viability (HCC1937) [nM] | EC50, CellTiter-Blue viability (HCC1599 [29]) [µM] | EC50, CellTiter-Blue viability (MDA-MB-468 [30]) [nM] | EC50, CellTiter-Blue viability (DU-4475 [31]) [µM] | EC50, CellTiter-Blue viability (CAL-85-1 [32]) [nM] | EC50, CellTiter-Blue viability (CAL-51 [33]) [µM] | EC50, CellTiter-Blue viability (CAL-148 [34]) [nM] | EC50, CellTiter-Blue viability (MDA-MB-453 [35]) [nM]
Nc1ccccc1NC(=O)c1ccc(CNC(=O)OCc2cccnc2)cc1 [Entinostat] | 3.83 | 7.64 | 2380 | 1550 | 4.85 | 8.31 | 4.76 | 2160 | 356 | 1330 | 2560 | 925 | 7.17 | 4840 | 2160 | 4.17 | 0 | 1440 | 4.31 | 1140 | 6.22 | 4.16 | 7.14 | 1230 | 3.52 | 5.88 | 2710 | 1890 | 5.1 | 777 | 2880 | 1170 | 3.68 | 1520 | 5.7 | 2700 | 7.86 | 2990 | 2860
O=C(O)CCCCC(CCSCc1ccccc1)SCc1ccccc1 (stereo not drawn) [CPI-613] |  |  |  |  |  |  |  |  |  |  |  |  |  |  |  |  | 0 |  | > 10 |  |  |  |  |  |  |  |  |  |  |  |  |  |  |  |  |  |  |  | 
Cc1cnc(NC(=O)Nc2cc(Br)c(C)cc2OC[C@@H]2CNCCO2)cn1 [Rabusertib] |  |  |  | 354 |  | > 1 |  | 918 |  |  |  |  |  | 691 | 219 |  | 0 |  |  |  |  | > 1 |  |  |  |  |  |  |  |  |  |  |  |  |  |  |  |  | 
